Source: PubChem BioAssay AID1963980 (Molecular Pharmacology Branch, DTP, NCI, 2024)
pIC50: −log10 of the molar value. Several values for one entry are separate records, joined by “and”; a condition that tells them apart may be missing. Identical values can stand only once.

Tested on: 475296-252-R-J1-PDC spheroid viability
Experiment: Anticancer human tumor 475296-252-R-J1-PDC patient-derived rectal carcinoma cell line growth inhibition [PI3K]
Settings: spheroids with HUVEC and MSC; for viability, T/C: stronger effect = lower value
Method in brief: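 Viability of mixed-cell spheroids was determined after exposure to pairwise combinations, one partner being inavolisib, alpelisib, duvelisib or copanlisib. Highest tested concentration matched clinical Cmax where known and 10 microM where not, descending in half-log steps.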

[1] = curve of first compound, second compound 0.00316 µM
[2] = curve of first compound, second compound 0.01 µM
[3] = curve of first compound, second compound 0.0316 µM
[4] = curve of first compound, second compound 0.1 µM
[5] = curve of first compound, second compound 0.316 µM
[6] = curve of first compound, second compound 1 µM
[7] = second compound 0.00316 µM, first compound 0.0316 µM
[8] = second compound 0.00316 µM, first compound 0.1 µM
[9] = second compound 0.00316 µM, first compound 0.316 µM
[10] = second compound 0.00316 µM, first compound 1 µM
[11] = second compound 0.00316 µM, first compound 3.16 µM
[12] = second compound 0.00316 µM, first compound 10 µM
[13] = second compound 0.01 µM, first compound 0.0316 µM
[14] = second compound 0.01 µM, first compound 0.1 µM
[15] = second compound 0.01 µM, first compound 0.316 µM
[16] = second compound 0.01 µM, first compound 1 µM
[17] = second compound 0.01 µM, first compound 3.16 µM
[18] = second compound 0.01 µM, first compound 10 µM
[19] = second compound 0.0316 µM, first compound 0.0316 µM
[20] = second compound 0.0316 µM, first compound 0.1 µM
[21] = second compound 0.0316 µM, first compound 0.316 µM
[22] = second compound 0.0316 µM, first compound 1 µM
[23] = second compound 0.0316 µM, first compound 3.16 µM
[24] = second compound 0.0316 µM, first compound 10 µM
[25] = second compound 0.1 µM, first compound 0.0316 µM
[26] = second compound 0.1 µM, first compound 0.1 µM
[27] = second compound 0.1 µM, first compound 0.316 µM
[28] = second compound 0.1 µM, first compound 1 µM
[29] = second compound 0.1 µM, first compound 3.16 µM
[30] = second compound 0.1 µM, first compound 10 µM
[31] = second compound 0.316 µM, first compound 0.0316 µM
[32] = second compound 0.316 µM, first compound 0.1 µM
[33] = second compound 0.316 µM, first compound 0.316 µM
[34] = second compound 0.316 µM, first compound 1 µM
[35] = second compound 0.316 µM, first compound 3.16 µM
[36] = second compound 0.316 µM, first compound 10 µM
[37] = second compound 1 µM, first compound 0.0316 µM
[38] = second compound 1 µM, first compound 0.1 µM
[39] = second compound 1 µM, first compound 0.316 µM
[40] = second compound 1 µM, first compound 1 µM
[41] = second compound 1 µM, first compound 3.16 µM
[42] = second compound 1 µM, first compound 10 µM
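Note: spheroids exposed to agents for seven days before readout.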

## CNC(=O)c1ccc(N2C(=S)N(c3ccc(C#N)c(C(F)(F)F)c3)C(=O)C2(C)C)cc1F + CC(Nc1ccc2c(c1)OCCn1cc(N3C(=O)OCC3C(F)F)nc1-2)C(N)=O
[1]
  pIC50: < 5.00
[2]
  pIC50: < 5.00
[3]
  pIC50: < 5.00
[4]
  pIC50: < 5.00
[5]
  pIC50: < 5.00
[6]
  pIC50: < 5.00
[7]
  viability, T/C: 98.4%
[8]
  viability, T/C: 85%
[9]
  viability, T/C: 102%
[10]
  viability, T/C: 84.3%
[11]
  viability, T/C: 100%
[12]
  viability, T/C: 104%
[13]
  viability, T/C: 95.4%
[14]
  viability, T/C: 90.4%
[15]
  viability, T/C: 102%
[16]
  viability, T/C: 93%
[17]
  viability, T/C: 99.3%
[18]
  viability, T/C: 85.1%
[19]
  viability, T/C: 94.6%
[20]
  viability, T/C: 87.7%
[21]
  viability, T/C: 94.2%
[22]
  viability, T/C: 99.9%
[23]
  viability, T/C: 96.9%
[24]
  viability, T/C: 103%
[25]
  viability, T/C: 87.1%
[26]
  viability, T/C: 93.6%
[27]
  viability, T/C: 90%
[28]
  viability, T/C: 100%
[29]
  viability, T/C: 97.5%
[30]
  viability, T/C: 91.3%
[31]
  viability, T/C: 87.7%
[32]
  viability, T/C: 93.8%
[33]
  viability, T/C: 84.9%
[34]
  viability, T/C: 94.3%
[35]
  viability, T/C: 92.5%
[36]
  viability, T/C: 90.9%
[37]
  viability, T/C: 98.1%
[38]
  viability, T/C: 89%
[39]
  viability, T/C: 91.3%
[40]
  viability, T/C: 84%
[41]
  viability, T/C: 94.3%
[42]
  viability, T/C: 80.8%

## CC1(C)CCC(CN2CCN(c3ccc(C(=O)NS(=O)(=O)c4ccc(NCC5CCOCC5)c([N+](=O)[O-])c4)c(Oc4cnc5[nH]ccc5c4)c3)CC2)=C(c2ccc(Cl)cc2)C1 + CC(Nc1ccc2c(c1)OCCn1cc(N3C(=O)OCC3C(F)F)nc1-2)C(N)=O
[1]
  pIC50: < 5.00
[2]
  pIC50: < 5.00
[3]
  pIC50: < 5.00
[4]
  pIC50: < 5.00
[5]
  pIC50: < 5.00
[6]
  pIC50: < 5.00
[7]
  viability, T/C: 109%
[8]
  viability, T/C: 94.4%
[9]
  viability, T/C: 92.3%
[10]
  viability, T/C: 87.3%
[11]
  viability, T/C: 86.3%
[12]
  viability, T/C: 84.2%
[13]
  viability, T/C: 92.4%
[14]
  viability, T/C: 85.5%
[15]
  viability, T/C: 101%
[16]
  viability, T/C: 83.2%
[17]
  viability, T/C: 93%
[18]
  viability, T/C: 74.5%
[19]
  viability, T/C: 95.5%
[20]
  viability, T/C: 96%
[21]
  viability, T/C: 94.3%
[22]
  viability, T/C: 96.2%
[23]
  viability, T/C: 96.9%
[24]
  viability, T/C: 77.2%
[25]
  viability, T/C: 87.7%
[26]
  viability, T/C: 96.1%
[27]
  viability, T/C: 87%
[28]
  viability, T/C: 97.1%
[29]
  viability, T/C: 90.4%
[30]
  viability, T/C: 73.7%
[31]
  viability, T/C: 85.2%
[32]
  viability, T/C: 83.8%
[33]
  viability, T/C: 93.9%
[34]
  viability, T/C: 88.3%
[35]
  viability, T/C: 81.2%
[36]
  viability, T/C: 74.1%
[37]
  viability, T/C: 93.7%
[38]
  viability, T/C: 82.3%
[39]
  viability, T/C: 85.8%
[40]
  viability, T/C: 89.6%
[41]
  viability, T/C: 82.6%
[42]
  viability, T/C: 72.8%

## Cn1ncnc1[C@H]1c2n[nH]c(=O)c3cc(F)cc(c23)N[C@@H]1c1ccc(F)cc1
Compound 0.000316 µM
  viability, T/C: 114% and 102% (2×) and 106%
Compound 0.001 µM
  viability, T/C: 104% [middle of 4 runs]
Compound 0.00316 µM
  viability, T/C: 96.1% [middle of 4 runs]
Compound 0.01 µM
  viability, T/C: 93.1% [middle of 4 runs]
Compound 0.0316 µM
  viability, T/C: 104% [middle of 4 runs]
Compound 0.1 µM
  viability, T/C: 90.4% [middle of 4 runs]
Curve of compound
  pIC50: < 7.00

## CC(Cn1ccc(-c2ccc(C#N)c(Cl)c2)n1)NC(=O)c1cc(C(C)O)[nH]n1 (stereo not drawn) + COc1c(OCCCN2CCOCC2)ccc2c3n(c(=NC(=O)c4cnc(N)nc4)nc12)CCN3
[1]
  pIC50: < 5.00
[2]
  pIC50: < 5.00
[3]
  pIC50: < 5.00
[4]
  pIC50: < 5.00
[5]
  pIC50: < 5.00
[6]
  pIC50: < 5.00
[7]
  viability, T/C: 106%
[8]
  viability, T/C: 99.3%
[9]
  viability, T/C: 103%
[10]
  viability, T/C: 91.7%
[11]
  viability, T/C: 107%
[12]
  viability, T/C: 94.7%
[13]
  viability, T/C: 102%
[14]
  viability, T/C: 101%
[15]
  viability, T/C: 111%
[16]
  viability, T/C: 95.8%
[17]
  viability, T/C: 102%
[18]
  viability, T/C: 87.7%
[19]
  viability, T/C: 97%
[20]
  viability, T/C: 87.6%
[21]
  viability, T/C: 89.7%
[22]
  viability, T/C: 81.2%
[23]
  viability, T/C: 90.6%
[24]
  viability, T/C: 88.2%
[25]
  viability, T/C: 84.6%
[26]
  viability, T/C: 88.7%
[27]
  viability, T/C: 77.8%
[28]
  viability, T/C: 95.3%
[29]
  viability, T/C: 91.6%
[30]
  viability, T/C: 83%
[31]
  viability, T/C: 73.8%
[32]
  viability, T/C: 74%
[33]
  viability, T/C: 73.4%
[34]
  viability, T/C: 71.7%
[35]
  viability, T/C: 79.1%
[36]
  viability, T/C: 67.3%
[37]
  viability, T/C: 65.2%
[38]
  viability, T/C: 68.7%
[39]
  viability, T/C: 75.8%
[40]
  viability, T/C: 62.2%
[41]
  viability, T/C: 71%
[42]
  viability, T/C: 64%
